Measurements reported in patent publication US20050143366A1, “Compounds for diagnosis, treatment and prevention of bone injury and metabolic disorders” (priority 2003, published 2005).

Key:
[1] = tested on: bone loss associated with OVX; assay: Whole femoral density in ovariectomized rats, ED50 for preventing bone loss; format: in vivo, Sprague-Dawley female rats; conditions: dosing 3 times a week for about 6 weeks, dose preventing about 50% of the bone loss, by interpolation; for ED50: Rattus norvegicus, 1008 h, read-out: ED50 (nmol/kg) for preservation of Femoral Mass
Method: In vivo experiments—Bilaterally ovariectomized and sham operated Sprague-Dawley female rats (150-170 g) from Harlan Laboratories (Indianapolis, Ind.) are housed on about a 12 hour dark/light cycle at 22° C. with ad libitum access to tap water and food (Purina Laboratory Rodent Diet 5001: 0.95% calcium, 0.67% total phosphorous, and 0.40% non-phytate phosphorous). The rats are randomly assigned into groups of about 6 to 10 animals. Compound administration begins about 4 days after surgery. […] All compounds are dissolved in 5% DMSO in corn oil. After about 6 weeks of dosing, animals are euthanized by carbon dioxide asphyxiation. Blood is collected by cardiac puncture, and uteri and both left and right femurs are removed. Fresh weights of uteri are obtained. All animal procedures and care are approved by the internal animal care and use committee to ensure compliance with NIH guidelines. Determination of whole femoral density.—Following removal, femurs are rubbed clean of soft tissue using gauze, and femur fresh weights are measured. Femurs are then submerged in distilled water under a vacuum for about 1 hour to completely hydrate the femurs. Densities are determined by Archimedes' Principle using the following formula: density=[mass of hydrated femur/(mass of hydrated femur-mass of hydrated femur submerged in water)]*density of water at ambient temperature. The dose that is effective in preventing about 50% of the bone loss associated with OVX (ED50) is determined by interpolation.

[2] = tested on: bone strength of femora from OVX rats; assay: Blunt indentation force to failure test of the distal femoral metaphysis; format: in vivo; conditions: FIG. 1
Method: FIG. 1 is a bar graph showing the distal femur strength of animals including those treated with an exemplary compound of the present invention.
Bone density is not necessarily the equivalent to bone strength, so an additional test (blunt indentation force of the distal metaphysis) is performed as well. With reference to FIG. 1, as a measure of bone mechanical competence, a blunt indentation force to failure test is performed on femora from about 6-week-old OVX rats. Sham operated animals are simultaneously tested as a control.

[3] = Binding to microcrystalline hydroxyapatite from dilute aqueous solution; conditions: for % Adsorbed: 10^-5 M in 99:1 H2O:DMSO, 0.5% (w/v) slurried HA in Tris, mixed about 4 minutes, UV of supernatant; for Binding Index: Tetracycline positive control = 100
From the text: The ability of the compounds of the present invention to act as bone targeted pharmaceuticals is estimated initially by determination of the ability of the compounds to be bound to microcrystalline hydroxyapatite [Ca10(PO4)6.OH2] (HA) from a dilute aqueous solution. Solutions of test compounds are constructed in about 99: 1, v/v, H2O:dimethylsulfoxide (DMSO) at 10^−5M. These solutions are taken for determination of electronic photometric absorption spectra scanning from λ=500-190 nm. Absorption maxima (λmax) and extinction coefficients (ε) are determined using the Beer-Lambert law. […] These solutions and slurries are mixed for about 4 minutes, then centrifuged for about 3 minutes at 10,000×g. Supernatants are taken for UV absorption spectrometry at previously determined λmax. Concentrations of test compound are determined and the extent of binding is calculated. Tetracycline is included as a positive control compound.

Compound | ED50 (nmol/kg) for preservation of Femoral Mass [1] [nmol/kg] | effect on bone strength (blunt indentation force to failure) ([2]; at a normal dose) [%] | ED50 [1] [nmol/kg] | % Adsorbed [3] [%] | Binding Index [3] | bone strength (blunt indentation force to failure, distal femur) [2]
Raloxifene [reference compound] | 210 | ~30 |  |  |  | 
COc1ccc(NC(=O)CCC(=O)OC2CCC3C4CCc5cc(O)ccc5C4CCC23C)c(O)c1C(N)=O (centres unmarked) [BTE2-A2] |  |  | 19 | 91.7 | 178 | 
C[C@]12CC[C@@H]3c4ccc(O)cc4CC[C@H]3[C@@H]1CC[C@@H]2O [17-β-estradiol, reference compound] |  |  | 10 | −4.0 | −8 | completely protect against osteopenia
COc1ccc(NC(=O)CCCCC(=O)OC2CCC3C4CCc5cc(O)ccc5C4CCC23C)c(O)c1C(N)=O (centres unmarked) [BTE2-B2] |  |  | 9 | 99.1 | 192 | 
NC(=O)c1c(O)ccc(N)c1O [3-amino-2,6-dihydroxybenzamide, reference compound] |  |  |  | 25.4 | 49 | 
CC12CCC3c4ccc(O)cc4CCC3C1CCC2OC(=O)CCC(=O)Nc1ccc(O)c(C(N)=O)c1O (centres unmarked) [BTE2-A1] |  |  | 8 | 54 | 105 | 
